# Values of other authors, collected in patent publication US20260218136A1, “R[…], COMPOSITIONS, AND METHODS OF USE” (priority 2022, published 2026).
# Settings: target and test not given; stated in the description of the rapalog bridging factor
structure (smiles),measurement,value
"CO[C@H]1[C@@H](O)[C@H](C)C[C@H](C)/C=C/C=C/C=C(\C)[C@@H](c2c[nH]c3c(C)cccc23)C[C@@H]2CC[C@@H](C)[C@@](O)(O2)C(=O)C(=O)N2CCCC[C@H]2C(=O)O[C@H]([C@H](C)C[C@@H]2CC[C@@H](O)[C@H](OC)C2)C[C@H](O)[C@H](C)/C=C(\C)[C@H]1O [AP21967, C-16-(S)-7-methylindolerapamycin]",IC50,10 nM
